According to patent US20060172334A1, “Method for detecting adverse reaction susceptibility to an HMG CoA reductase inhibitor” (Marshfield Clinic, priority 2005, published 2006):
Where two headings read alike, the source gives them in different places.

Conditions: cases only
[1] = CYP3A4 heterozygous (CYP3A4*1A/*1B), less gemfibrozil
[2] = CYP3A4 heterozygous (CYP3A4*1A/*1B), less gemfibrozil AND less niacin
[3] = CYP3A4 heterozygous (CYP3A4*1A/*1B), no medications removed
[4] = CYP3A4 homozygous (CYP3A4*1A/*1A), less gemfibrozil
[5] = CYP3A4 homozygous (CYP3A4*1A/*1A), less gemfibrozil AND less niacin
[6] = CYP3A4 homozygous (CYP3A4*1A/*1A), no medications removed
[7] = CYP3A5 heterozygous (CYP3A5*1/*3), less gemfibrozil
[8] = CYP3A5 heterozygous (CYP3A5*1/*3), less gemfibrozil AND less niacin
[9] = CYP3A5 heterozygous (CYP3A5*1/*3), no medications removed
[10] = CYP3A5 homozygous (CYP3A5*3/*3), less gemfibrozil
[11] = CYP3A5 homozygous (CYP3A5*3/*3), less gemfibrozil AND less niacin
[12] = CYP3A5 homozygous (CYP3A5*3/*3), no medications removed

Method: Study subjects were enrolled at a large, horizontally-integrated, multispecialty group practice located in central Wisconsin. […] Case assignment (i.e., status as a case versus control) was determined by criteria outlined below.
One hundred thirty-seven adult subjects (68 cases and 69 controls) agreed to participate in this study. Due to potentially confounding pharmacokinetic interactions, patients were excluded from the study if they had previously been diagnosed with kidney disease or liver disease. Patients were also excluded if they had pre-existing muscle disease. Patients were not excluded if they were taking concomitant medications.
To determine whether CYP3A4*1B or CYP3A5*3 were associated with the severity of muscle damage, serum CK levels were ranked and compared between genotypes in the case cohort only.

With `CC(C)c1c(C(=O)Nc2ccccc2)c(-c2ccccc2)c(-c2ccc(F)cc2)n1CC[C@@H](O)C[C@@H](O)CC(=O)O` [atorvastatin] the “serum CK level, Mean” value [1] was 268.8, the “serum CK level, Median” value [1] was 246.0 and the “serum CK level, Mean” value [2] was 246.6. The “serum CK level, Median” value [2] was 239.0, the “serum CK level, Mean” value [3] was 268.8 and the “serum CK level, Median” value [3] was 246.0. The “serum CK level, Mean” value [4] was 434.6, the “serum CK level, Median” value [4] was 316.5 and the “serum CK level, Mean” value [5] was 420.4. For the same molecule, the “serum CK level, Median” value [5] was 316.5, the “serum CK level, Mean” value [6] was 441.1 and the “serum CK level, Median” value [6] was 321.0. For the same molecule, the “serum CK level, Mean” value [7] was 261.7, the “serum CK level, Median” value [7] was 239.0 and the “serum CK level, Mean” value [8] was 249.9. For the same molecule, the “serum CK level, Median” value [8] was 237.5, the “serum CK level, Mean” value [9] was 344.0 and the “serum CK level, Median” value [9] was 246.0. The “serum CK level, Mean” value [10] was 441.9, the “serum CK level, Median” value [10] was 321.0 and the “serum CK level, Mean” value [11] was 428.0. The “serum CK level, Median” value [11] was 321.0, the “serum CK level, Mean” value [12] was 429.2 and the “serum CK level, Median” value [12] was 317.5.
